# Data: PubChem BioAssay AID1963833 (Molecular Pharmacology Branch, DTP, NCI, 2024)
# Test system: 883617-216-R-J1-PDC complex spheroid viability
# Test: Anticancer human tumor 883617-216-R-J1-PDC patient-derived bladder carcinoma cell line growth inhibition [POLQ]
# Conditions: for IC50: curve of first compound; for viability, T/C: stronger effect = lower value
# Description: Multicellular complex tumor spheroid response to Polymerase (POL) inhibitors (novobiocin, ART-558, RP6685) in combination with a variety of drugs and investigational agents in selected tumor cell lines
# The POL inhibitors (novobiocin, ART-558, and RP6685) were evaluated both individually and in combination with standard of care and investigational anticancer small molecules within a complex spheroid model of solid tumors. . Complex spheroids include a stromal component modeled by human endothelial cells (HUVEC) and fibroblasts modeled by human mesenchymal stem cells (MSCs). The concentration ranges selected for each drug and investigational agent were based upon clinically achievable concentrations if the clinical Cmax of the agent was known.
# Compounds. The drugs and investigational agents: novobiocin (NSC847541), ART-558 (NSC835418), RP-6685 (NSC848927), peposertib (NSC802822), ceralasertib (NSC780249), elimusertib (NSC800525), camonsertib (NSC841442), AZD-1390 (NSC803789), olaparib (NSC753686), talazoparib (NSC767125), rucaparib (NSC756644), sotorasib (NSC818433), MRTX-1133 (NSC836407), SN-38 (NSC673596), topotecan (NSC609699), epotoside (NSC141540), doxorubicin (NSC123127), gemcitabine (NSC613327), 5-fluorouracil (NSC19893), paclitaxel (NSC125973), vemurafenib (NSC761431), MSA-2 (NSC828583), SN-011 (NSC837082), adavosertib (NSC754352), prexasertib (NSC758257), carboplatin (NSC241240) and oxaliplatin (NSC266046), were obtained from the National Cancer Institute (NCI) Developmental Therapeutics Program Chemical Repository (21). The FDA-approved anticancer drug set is available from the Developmental Therapeutics Program at https://dtp.cancer.gov/organization/dscb/obtaining/. […] The stock solutions were prepared in dimethyl sulfoxide (DMSO, Sigma-Aldrich, St. Louis, MO, cat. D2650), except for the platinum compounds which were prepared in saline (Quality Biological, Gaithersburg, MD, cat. 114-055-101), at 800-fold the tested concentration and stored at -70 degrees C prior to their use. All drugs and investigational agents were tested over a range starting from a high concentration at or near the clinical Cmax and decreasing in half-log increments. If the clinical Cmax for an agent had not been determined, the highest concentration tested was 10 microM, except for SN-38, which was tested at a high concentration of 1 microM.
# Cell Culture. All cells were maintained in an incubator at 37 degrees C and 5% CO2 with 95% humidity. The PDC lines were cultured according to standard operating procedures established by the NCI PDMR (https://pdmr.cancer.gov). Table 3 of the manuscript, lists the cell lines along with the number of the three cell types plated to form the mct-spheroids and media for tumor cell growth. After thawing, all PDC lines, except 997537-175-T-J1-PDC and 415267-285-R-J2-PDC, were cultured in Matrigel-coated flasks prepared with a working solution of 1X Ham's F-12 nutrient mix, without supplementation (Thermo Fisher Scientific, cat. 11765054), 100 U/mL penicillin-streptomycin (Thermo Fisher Scientific, cat. 15140122), and 2.5% Matrigel (Corning Inc., Corning, NY, cat. 354248) for the first three passages. The two PDC lines 997537-175-T-J1-PDC and 415267-285-R-J2-PDC were cultured on uncoated flasks. The 857933-349-R-J2-PDC line was cultured in 6C/Colon 1B media containing advanced DMEM/F-12 (Thermo Fisher Scientific, cat. 12634028), 10 mM HEPES (Thermo Fisher Scientific, cat. 15630080), 1X GlutaMAX supplement (Thermo Fisher Scientific, cat. 35050061), 0.1 mg/mL primocin (InvivoGen, San Diego, CA, cat. ant-pm-2), 10% defined fetal bovine serum, heat inactivated (HyClone Laboratories Inc., Logan, UT, cat. SH30070.03HI), 50% L-WRN conditioned media (ATCC, cat. CRL-3276), 1.25 mM N-Acetyl-L-cysteine (Sigma-Aldrich, cat. A9165), 10 mM nicotinamide (Sigma-Aldrich, cat. N0636), 1X B-27 supplement (Thermo Fisher Scientific, cat. 17504044), 1X N-2 supplement (Thermo Fisher Scientific, cat. […]
# 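Further: spheroids exposed to compounds for seven days before readout.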
# 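Wherever viability, T/C is given: 100% = DMSO vehicle control viability.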
smiles,measurement,setting,value
CC(=O)O[C@H]1C(=O)[C@@]2(C)[C@H]([C@H](OC(=O)c3ccccc3)[C@]3(O)C[C@H](OC(=O)[C@H](O)[C@@H](NC(=O)c4ccccc4)c4ccccc4)C(C)=C1C3(C)C)[C@]1(OC(C)=O)CO[C@@H]1C[C@@H]2O + COC1C(OC(N)=O)C(O)C(Oc2ccc3c(O)c(NC(=O)c4ccc(O)c(CC=C(C)C)c4)c(=O)oc3c2C)OC1(C)C,IC50,second compound 0.0316 µM,< 0.00949 µM
same,IC50,second compound 0.1 µM,< 0.00949 µM
same,IC50,second compound 0.316 µM,< 0.00949 µM
same,IC50,second compound 1 µM,< 0.00949 µM
same,IC50,second compound 3.16 µM,< 0.00949 µM
same,IC50,second compound 10 µM,< 0.00949 µM
same,"viability, T/C","second compound 0.0316 µM, first compound 0.00949 µM",39.5%
same,"viability, T/C","second compound 0.0316 µM, first compound 0.03 µM",27.8%
same,"viability, T/C","second compound 0.0316 µM, first compound 0.0949 µM",26.4%
same,"viability, T/C","second compound 0.0316 µM, first compound 0.3 µM",20.8%
same,"viability, T/C","second compound 0.0316 µM, first compound 0.949 µM",18.2%
same,"viability, T/C","second compound 0.0316 µM, first compound 3 µM",19.8%
same,"viability, T/C","second compound 0.1 µM, first compound 0.00949 µM",40.2%
same,"viability, T/C","second compound 0.1 µM, first compound 0.03 µM",34.2%
same,"viability, T/C","second compound 0.1 µM, first compound 0.0949 µM",23.4%
same,"viability, T/C","second compound 0.1 µM, first compound 0.3 µM",23.7%
same,"viability, T/C","second compound 0.1 µM, first compound 0.949 µM",19.6%
same,"viability, T/C","second compound 0.1 µM, first compound 3 µM",20.7%
same,"viability, T/C","second compound 0.316 µM, first compound 0.00949 µM",50.6%
same,"viability, T/C","second compound 0.316 µM, first compound 0.03 µM",27.9%
same,"viability, T/C","second compound 0.316 µM, first compound 0.0949 µM",25.4%
same,"viability, T/C","second compound 0.316 µM, first compound 0.3 µM",17.5%
same,"viability, T/C","second compound 0.316 µM, first compound 0.949 µM",16.1%
same,"viability, T/C","second compound 0.316 µM, first compound 3 µM",20.6%
same,"viability, T/C","second compound 1 µM, first compound 0.00949 µM",42.2%
same,"viability, T/C","second compound 1 µM, first compound 0.03 µM",28.2%
same,"viability, T/C","second compound 1 µM, first compound 0.0949 µM",19%
same,"viability, T/C","second compound 1 µM, first compound 0.3 µM",26%
same,"viability, T/C","second compound 1 µM, first compound 0.949 µM",20.5%
same,"viability, T/C","second compound 1 µM, first compound 3 µM",15.9%
same,"viability, T/C","second compound 3.16 µM, first compound 0.00949 µM",42.7%
same,"viability, T/C","second compound 3.16 µM, first compound 0.03 µM",31.1%
same,"viability, T/C","second compound 3.16 µM, first compound 0.0949 µM",21.9%
same,"viability, T/C","second compound 3.16 µM, first compound 0.3 µM",22.7%
same,"viability, T/C","second compound 3.16 µM, first compound 0.949 µM",23.7%
same,"viability, T/C","second compound 3.16 µM, first compound 3 µM",17.1%
same,"viability, T/C","second compound 10 µM, first compound 0.00949 µM",42.2%
same,"viability, T/C","second compound 10 µM, first compound 0.03 µM",27.1%
same,"viability, T/C","second compound 10 µM, first compound 0.0949 µM",15.1%
same,"viability, T/C","second compound 10 µM, first compound 0.3 µM",16%
same,"viability, T/C","second compound 10 µM, first compound 0.949 µM",21%
same,"viability, T/C","second compound 10 µM, first compound 3 µM",21.6%
COc1cc(C2c3cc4c(cc3C(OC3OC5COC(C)OC5C(O)C3O)C3COC(=O)C23)OCO4)cc(OC)c1O (centres undefined) + COC1C(OC(N)=O)C(O)C(Oc2ccc3c(O)c(NC(=O)c4ccc(O)c(CC=C(C)C)c4)c(=O)oc3c2C)OC1(C)C,IC50,second compound 0.0316 µM,> 10 µM
same,IC50,second compound 0.1 µM,> 10 µM
same,IC50,second compound 0.316 µM,> 10 µM
same,IC50,second compound 1 µM,> 10 µM
same,IC50,second compound 3.16 µM,> 10 µM
same,IC50,second compound 10 µM,> 10 µM
same,"viability, T/C","second compound 0.0316 µM, first compound 0.0316 µM",96.1%
same,"viability, T/C","second compound 0.0316 µM, first compound 0.1 µM",90%
same,"viability, T/C","second compound 0.0316 µM, first compound 0.316 µM",74.3%
same,"viability, T/C","second compound 0.0316 µM, first compound 1 µM",61.8%
same,"viability, T/C","second compound 0.0316 µM, first compound 3.16 µM",59.5%
same,"viability, T/C","second compound 0.0316 µM, first compound 10 µM",51.7%
same,"viability, T/C","second compound 0.1 µM, first compound 0.0316 µM",109%
same,"viability, T/C","second compound 0.1 µM, first compound 0.1 µM",89.6%
same,"viability, T/C","second compound 0.1 µM, first compound 0.316 µM",71.1%
same,"viability, T/C","second compound 0.1 µM, first compound 1 µM",69%
same,"viability, T/C","second compound 0.1 µM, first compound 3.16 µM",51.2%
same,"viability, T/C","second compound 0.1 µM, first compound 10 µM",59.3%
same,"viability, T/C","second compound 0.316 µM, first compound 0.0316 µM",87%
same,"viability, T/C","second compound 0.316 µM, first compound 0.1 µM",90.2%
same,"viability, T/C","second compound 0.316 µM, first compound 0.316 µM",78.9%
same,"viability, T/C","second compound 0.316 µM, first compound 1 µM",72.2%
same,"viability, T/C","second compound 0.316 µM, first compound 3.16 µM",70.8%
same,"viability, T/C","second compound 0.316 µM, first compound 10 µM",51%
same,"viability, T/C","second compound 1 µM, first compound 0.0316 µM",97%
same,"viability, T/C","second compound 1 µM, first compound 0.1 µM",89.5%
same,"viability, T/C","second compound 1 µM, first compound 0.316 µM",72.9%
same,"viability, T/C","second compound 1 µM, first compound 1 µM",57.9%
same,"viability, T/C","second compound 1 µM, first compound 3.16 µM",57.3%
same,"viability, T/C","second compound 1 µM, first compound 10 µM",48.9%
same,"viability, T/C","second compound 3.16 µM, first compound 0.0316 µM",106%
same,"viability, T/C","second compound 3.16 µM, first compound 0.1 µM",92.1%
same,"viability, T/C","second compound 3.16 µM, first compound 0.316 µM",72.7%
same,"viability, T/C","second compound 3.16 µM, first compound 1 µM",65.7%
same,"viability, T/C","second compound 3.16 µM, first compound 3.16 µM",57.4%
same,"viability, T/C","second compound 3.16 µM, first compound 10 µM",52.7%
same,"viability, T/C","second compound 10 µM, first compound 0.0316 µM",97.2%
same,"viability, T/C","second compound 10 µM, first compound 0.1 µM",95.4%
same,"viability, T/C","second compound 10 µM, first compound 0.316 µM",73%
same,"viability, T/C","second compound 10 µM, first compound 1 µM",59.8%
same,"viability, T/C","second compound 10 µM, first compound 3.16 µM",55.6%
same,"viability, T/C","second compound 10 µM, first compound 10 µM",53%
